Experimental data taken from PubChem BioAssay AID248 (DTP/NCI, 2004).
Where “and” joins values, the source holds several entries; their conditions need not be identical. Equal entries are not always repeated. Toxic doses and inconclusive results are not listed. Cut-off read from the data, not from the text of the source: active = T/C of 150% or more; inactive = T/C below 125%.

System: L1210 leukemia ip in BDF1 mice, survival T/C
Assay: NCI In Vivo Anticancer Drug Screen. Data for tumor model L1210 Leukemia (intraperitoneal) in B6D2F1 (BDF1) mice
Details: endpoint: mean survival time, higher = longer survival
How it was run: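 Read-out is survival time, reported as the treated-group measurement over the vehicle-control measurement.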

[1] = dose: 100.0 mg/kg/injection, schedule: Q01DX001 (ip), vehicle: saline
[2] = dose: 100.0 mg/kg/injection, schedule: Q04DX003 (ip), vehicle: saline
[3] = dose: 200.0 mg/kg/injection, schedule: Q01DX001 (ip), vehicle: saline
[4] = dose: 200.0 mg/kg/injection, schedule: Q04DX003 (ip), vehicle: saline
[5] = dose: 400.0 mg/kg/injection, schedule: Q01DX001 (ip), vehicle: saline
[6] = dose: 400.0 mg/kg/injection, schedule: Q04DX003 (ip), vehicle: saline
[7] = dose: 100.0 mg/kg/injection, schedule: Q04DX003 (ip), vehicle: saline with Tween-80
[8] = dose: 100.0 mg/kg/injection, schedule: Q01DX001 (ip), vehicle: carboxymethylcellulose (CMC)
[9] = dose: 200.0 mg/kg/injection, schedule: Q01DX001 (ip), vehicle: carboxymethylcellulose (CMC)
[10] = dose: 400.0 mg/kg/injection, schedule: Q01DX001 (ip), vehicle: carboxymethylcellulose (CMC)
[11] = dose: 50.0 mg/kg/injection, schedule: Q01DX001 (ip), vehicle: carboxymethylcellulose (CMC)
[12] = dose: 50.0 mg/kg/injection, schedule: Q01DX009 (ip), vehicle: saline with Tween-80
[13] = dose: 100.0 mg/kg/injection, schedule: Q01DX009 (ip), vehicle: saline with Tween-80
[14] = dose: 200.0 mg/kg/injection, schedule: Q01DX009 (ip), vehicle: saline with Tween-80
[15] = dose: 25.0 mg/kg/injection, schedule: Q01DX009 (ip), vehicle: Klucel (hydroxypropylcellulose) (HPC)
[16] = dose: 50.0 mg/kg/injection, schedule: Q01DX009 (ip), vehicle: Klucel (hydroxypropylcellulose) (HPC)
[17] = dose: 100.0 mg/kg/injection, schedule: Q01DX009 (ip), vehicle: Klucel (hydroxypropylcellulose) (HPC)
[18] = dose: 200.0 mg/kg/injection, schedule: Q01DX009 (ip), vehicle: Klucel (hydroxypropylcellulose) (HPC)
[19] = dose: 400.0 mg/kg/injection, schedule: Q01DX009 (ip), vehicle: Klucel (hydroxypropylcellulose) (HPC)
[20] = dose: 100.0 mg/kg/injection, schedule: Q04DX003 (ip), vehicle: Klucel (hydroxypropylcellulose) (HPC)

Measured: T/C

NC(C[Se][Se]CC(N)C(=O)O)C(=O)O (stereo not given)
inactive: dose: 1.56 mg/kg/injection, schedule: Q04DX002 (ip), vehicle: saline 103 % of control | dose: 3.12 mg/kg/injection, schedule: Q04DX002 (ip), vehicle: saline 103 % of control | dose: 6.25 mg/kg/injection, schedule: Q04DX002 (ip), vehicle: saline 103 % of control | dose: 12.5 mg/kg/injection, schedule: Q04DX002 (ip), vehicle: saline 88 % of control

CCn1c(C)nc2cc(N=Cc3ccc(N(CCCl)CCCl)cc3C)ccc21
inactive: dose: 87.5 mg/kg/injection, schedule: Q04DX002 (ip), vehicle: Klucel (hydroxypropylcellulose) (HPC) 102 % of control | dose: 100.0 mg/kg/injection, schedule: Q04DX002 (ip), vehicle: Klucel (hydroxypropylcellulose) (HPC) 95 % of control | dose: 175.0 mg/kg/injection, schedule: Q04DX002 (ip), vehicle: Klucel (hydroxypropylcellulose) (HPC) 102 % of control | dose: 200.0 mg/kg/injection, schedule: Q04DX002 (ip), vehicle: Klucel (hydroxypropylcellulose) (HPC) 102 % of control | dose: 350.0 mg/kg/injection, schedule: Q04DX002 (ip), vehicle: Klucel (hydroxypropylcellulose) (HPC) 98 % of control | dose: 400.0 mg/kg/injection, schedule: Q04DX002 (ip), vehicle: Klucel (hydroxypropylcellulose) (HPC) 102 % of control

CC(C)C(C(=O)c1ccccc1)C(c1ccccc1)c1ccccc1 (stereo not given)
inactive: dose: 100.0 mg/kg/injection, schedule: Q01DX009 (ip), vehicle: other 103 % of control | dose: 200.0 mg/kg/injection, schedule: Q01DX009 (ip), vehicle: other 90 % of control | dose: 400.0 mg/kg/injection, schedule: Q01DX009 (ip), vehicle: other 103 % of control

CC(NC(=O)OCc1ccccc1)C(=O)ON1C(=O)CCC1=O (stereo not given)
inactive: [1] 97 % of control | dose: 100.0 mg/kg/injection, schedule: Q01DX009 (ip), vehicle: saline 95 % of control | [2] 96 % of control | [3] 102 % of control | dose: 200.0 mg/kg/injection, schedule: Q01DX009 (ip), vehicle: saline 93 % of control | [4] 94 % of control | [5] 97 % of control | dose: 400.0 mg/kg/injection, schedule: Q01DX009 (ip), vehicle: saline 88 % of control | [6] 96 % of control

COP1(=O)CC=C(C)C1 (stereo not given)
inactive: [1] 98 % of control | [3] 98 % of control | [5] 106 % of control

CC(C)C(C#N)(CCCCN1CCCC1)c1cccc2ccccc12 (stereo not given)
inactive: [7] 95 % of control

Clc1ccc(/C=N/N2CCN(/N=C/c3ccc(Cl)cc3)CC2)cc1
inactive: [8] 96 % of control | [9] 96 % of control | [10] 96 % of control

O=C1C=CC(=O)c2[nH]c(=O)ccc21
inactive: dose: 5.0 mg/kg/injection, schedule: Q01DX001 (ip), vehicle: saline 104 % of control | dose: 10.0 mg/kg/injection, schedule: Q01DX001 (ip), vehicle: saline 107 % of control

Cn1cnc2c1c(=N)ncn2O
inactive: dose: 100.0 mg/kg/injection, schedule: Q01DX001 (ip), vehicle: other 103 % of control | dose: 100.0 mg/kg/injection, schedule: Q04DX003 (ip), vehicle: other 107 % of control | dose: 200.0 mg/kg/injection, schedule: Q01DX001 (ip), vehicle: other 103 % of control | dose: 200.0 mg/kg/injection, schedule: Q04DX003 (ip), vehicle: other 113 % of control | dose: 400.0 mg/kg/injection, schedule: Q01DX001 (ip), vehicle: other 103 % of control | dose: 400.0 mg/kg/injection, schedule: Q04DX003 (ip), vehicle: other 113 % of control

NC(=NCCCC(NC(=O)OCc1ccccc1)C(=O)NC1C(CO)OC(n2cnc3c(N)ncnc32)C1O)N[N+](=O)[O-] (stereo not given)
inactive: dose: 50.0 mg/kg/injection, schedule: Q01DX001 (ip), vehicle: saline 90 % of control | [1] 95 % of control | [3] 93 % of control

Cc1cc(=O)[nH]c(O)c1C(=O)CC(=O)c1ccccc1
inactive: [1] 97 % of control | [3] 100 % of control

Nc1nc(N)c2c(n1)CN(Cc1ccccc1)C2
inactive: dose: 25.0 mg/kg/injection, schedule: Q01DX001 (ip), vehicle: carboxymethylcellulose (CMC) 103 % of control | [11] 103 % of control

Oc1ccccc1Sc1ccccc1O
inactive: [1] 92 % of control | [5] 97 % of control

O=C1c2ccccc2C(=O)N1CCc1ccccn1
inactive: [12] 101 % of control | [13] 95 % of control | [7] 102 % of control | [14] 93 % of control | dose: 200.0 mg/kg/injection, schedule: Q04DX003 (ip), vehicle: saline with Tween-80 101 % of control

Cc1ccc(NC(=O)Oc2cccnc2)cc1
inactive: dose: 12.5 mg/kg/injection, schedule: Q01DX009 (ip), vehicle: Klucel (hydroxypropylcellulose) (HPC) 107 % of control | [15] 107 % of control | [16] 96 % of control

O=C(Nc1ccccc1)c1ccccc1C(O)(c1ccccc1)c1ccc(Cl)cc1 (stereo not given)
inactive: [13] 92 % of control | [14] 90 % of control | dose: 400.0 mg/kg/injection, schedule: Q01DX009 (ip), vehicle: saline with Tween-80 93 % of control

O=C(OCCBr)c1ccc(Cl)cc1
inactive: [2] 101 % of control | [4] 97 % of control | [6] 103 % of control

O=C(Nc1ccc(C(=O)O)cc1)Nc1cccc(Cl)c1
inactive: dose: 25.0 mg/kg/injection, schedule: Q04DX002 (ip), vehicle: saline 92 % of control | dose: 50.0 mg/kg/injection, schedule: Q04DX002 (ip), vehicle: saline 95 % of control | dose: 100.0 mg/kg/injection, schedule: Q04DX002 (ip), vehicle: saline 100 % of control and 89 % of control

CN1C(=O)NC(C)(CCOCc2ccccc2)C1=O (stereo not given)
inactive: [11] 96 % of control | [8] 107 % of control | [9] 100 % of control | [10] 100 % of control

OC1C2C=CC(C2)C1O (stereo not given)
inactive: dose: 44.0 mg/kg/injection, schedule: Q01DX001 (ip), vehicle: saline 96 % of control | dose: 66.0 mg/kg/injection, schedule: Q01DX001 (ip), vehicle: saline 100 % of control | dose: 150.0 mg/kg/injection, schedule: Q01DX001 (ip), vehicle: saline 94 % of control | [3] 106 % of control | [5] 100 % of control

CC(C)(Br)C(=O)c1ccc([N+](=O)[O-])o1
inactive: dose: 12.5 mg/kg/injection, schedule: Q01DX009 (ip), vehicle: saline with Tween-80 97 % of control | dose: 25.0 mg/kg/injection, schedule: Q01DX009 (ip), vehicle: saline with Tween-80 104 % of control | dose: 25.0 mg/kg/injection, schedule: Q04DX003 (ip), vehicle: saline with Tween-80 104 % of control | [12] 95 % of control | dose: 50.0 mg/kg/injection, schedule: Q04DX003 (ip), vehicle: saline with Tween-80 96 % of control | [7] 99 % of control and 89 % of control

CCOC(=O)NC(NC(=O)OCC)c1ccc(Cl)cc1Cl
inactive: [8] 88 % of control | [10] 88 % of control

CCc1ccccc1NC(=O)Nc1ccccc1C(N)=O
inactive: [17] 87 % of control | [18] 93 % of control | [19] 93 % of control

COc1ccc2c(c1OC)C13CCCCC1C(C2)[N+](C)(C)CC3 (stereo not given)
inactive: dose: 12.5 mg/kg/injection, schedule: Q04DX003 (ip), vehicle: Klucel (hydroxypropylcellulose) (HPC) 100 % of control and 91 % of control | [15] 100 % of control | dose: 25.0 mg/kg/injection, schedule: Q04DX003 (ip), vehicle: Klucel (hydroxypropylcellulose) (HPC) 94 % of control and 106 % of control | [16] 89 % of control | dose: 50.0 mg/kg/injection, schedule: Q04DX003 (ip), vehicle: Klucel (hydroxypropylcellulose) (HPC) 96 % of control and 88 % of control | [20] 98 % of control

O=c1[nH]/c(=C\c2ccc3c(c2)OCO3)c(=O)[nH]/c1=C\c1ccc2c(c1)OCO2
inactive: [17] 94 % of control | [20] 93 % of control | [18] 86 % of control | dose: 200.0 mg/kg/injection, schedule: Q04DX003 (ip), vehicle: Klucel (hydroxypropylcellulose) (HPC) 96 % of control | [19] 89 % of control | dose: 400.0 mg/kg/injection, schedule: Q04DX003 (ip), vehicle: Klucel (hydroxypropylcellulose) (HPC) 98 % of control
